Experimental findings from patent US20090298820A1, “3-SUBSTITUTED-1H-PYRROLO[2,3-B]PYRIDINE AND 3-SUBSTITUTED-1H-PYRROLO[3,2-B]PYRIDINE COMPOUNDS, THEIR USE AS MTOR KINASE AND PI3 KINASE INHIBITORS, AND THEIR SYNTHESES” (Wyeth, priority 2008, published 2009) are described below.

A value given as a limit tells only on which side of the number the result lay.

Holding throughout (type): biochemical
Experiment [1] deals with PI3Kγ (Homo sapiens, UniProt P48736). As to the kind of experiment: PI3K-gamma fluorescence polarization assay. The conditions noted are these: read-out: PI3Kγ Median IC50. (In general: In fluorescence polarisation assays a small probe gives low polarisation when free and higher when bound to something large.)
Chain of PI3Kγ (P48736 whole entry, species assumed): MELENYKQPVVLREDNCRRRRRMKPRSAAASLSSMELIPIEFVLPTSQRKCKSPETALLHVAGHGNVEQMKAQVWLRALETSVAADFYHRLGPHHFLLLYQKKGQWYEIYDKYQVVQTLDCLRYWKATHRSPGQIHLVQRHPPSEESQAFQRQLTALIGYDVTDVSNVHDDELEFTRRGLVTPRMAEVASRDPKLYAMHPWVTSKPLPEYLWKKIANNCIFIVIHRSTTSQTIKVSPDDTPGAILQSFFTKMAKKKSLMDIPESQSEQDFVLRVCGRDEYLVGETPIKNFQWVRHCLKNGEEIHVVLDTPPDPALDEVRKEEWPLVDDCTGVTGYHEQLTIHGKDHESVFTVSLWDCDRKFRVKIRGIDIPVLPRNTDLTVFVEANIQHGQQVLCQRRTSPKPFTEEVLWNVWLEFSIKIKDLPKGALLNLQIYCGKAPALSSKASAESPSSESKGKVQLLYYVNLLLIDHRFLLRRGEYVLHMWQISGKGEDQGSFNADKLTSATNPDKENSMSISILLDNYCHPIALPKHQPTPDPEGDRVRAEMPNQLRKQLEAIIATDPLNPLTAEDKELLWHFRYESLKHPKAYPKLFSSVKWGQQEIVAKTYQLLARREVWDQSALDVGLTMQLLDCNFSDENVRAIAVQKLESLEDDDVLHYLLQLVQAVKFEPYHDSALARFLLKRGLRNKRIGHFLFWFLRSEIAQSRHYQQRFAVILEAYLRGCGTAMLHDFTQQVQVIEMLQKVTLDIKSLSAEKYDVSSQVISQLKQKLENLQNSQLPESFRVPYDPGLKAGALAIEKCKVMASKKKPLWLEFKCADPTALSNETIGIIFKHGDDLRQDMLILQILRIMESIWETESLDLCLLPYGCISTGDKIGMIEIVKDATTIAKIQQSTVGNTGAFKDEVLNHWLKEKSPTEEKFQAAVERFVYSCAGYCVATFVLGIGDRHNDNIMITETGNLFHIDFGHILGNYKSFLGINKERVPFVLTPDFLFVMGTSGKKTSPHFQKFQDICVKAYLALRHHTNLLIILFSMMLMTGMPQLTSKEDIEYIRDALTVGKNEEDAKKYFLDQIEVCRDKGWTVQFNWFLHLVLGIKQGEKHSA
Experiment [2] has as its target PI3Kα (Homo sapiens, UniProt P42336). As to the kind of experiment: PI3K-alpha fluorescence polarization assay. The note with it: read-out: PI3Kα Median IC50.
Experiment [3] has as its target mTOR (Homo sapiens, UniProt P42345). Nature of the experiment: mTOR enzyme assay (DELFIA format, His6-S6K substrate). The conditions noted are these: read-out: mTOR Kinase Median IC50.

Chain of PI3Kα (P42336 whole entry, species assumed): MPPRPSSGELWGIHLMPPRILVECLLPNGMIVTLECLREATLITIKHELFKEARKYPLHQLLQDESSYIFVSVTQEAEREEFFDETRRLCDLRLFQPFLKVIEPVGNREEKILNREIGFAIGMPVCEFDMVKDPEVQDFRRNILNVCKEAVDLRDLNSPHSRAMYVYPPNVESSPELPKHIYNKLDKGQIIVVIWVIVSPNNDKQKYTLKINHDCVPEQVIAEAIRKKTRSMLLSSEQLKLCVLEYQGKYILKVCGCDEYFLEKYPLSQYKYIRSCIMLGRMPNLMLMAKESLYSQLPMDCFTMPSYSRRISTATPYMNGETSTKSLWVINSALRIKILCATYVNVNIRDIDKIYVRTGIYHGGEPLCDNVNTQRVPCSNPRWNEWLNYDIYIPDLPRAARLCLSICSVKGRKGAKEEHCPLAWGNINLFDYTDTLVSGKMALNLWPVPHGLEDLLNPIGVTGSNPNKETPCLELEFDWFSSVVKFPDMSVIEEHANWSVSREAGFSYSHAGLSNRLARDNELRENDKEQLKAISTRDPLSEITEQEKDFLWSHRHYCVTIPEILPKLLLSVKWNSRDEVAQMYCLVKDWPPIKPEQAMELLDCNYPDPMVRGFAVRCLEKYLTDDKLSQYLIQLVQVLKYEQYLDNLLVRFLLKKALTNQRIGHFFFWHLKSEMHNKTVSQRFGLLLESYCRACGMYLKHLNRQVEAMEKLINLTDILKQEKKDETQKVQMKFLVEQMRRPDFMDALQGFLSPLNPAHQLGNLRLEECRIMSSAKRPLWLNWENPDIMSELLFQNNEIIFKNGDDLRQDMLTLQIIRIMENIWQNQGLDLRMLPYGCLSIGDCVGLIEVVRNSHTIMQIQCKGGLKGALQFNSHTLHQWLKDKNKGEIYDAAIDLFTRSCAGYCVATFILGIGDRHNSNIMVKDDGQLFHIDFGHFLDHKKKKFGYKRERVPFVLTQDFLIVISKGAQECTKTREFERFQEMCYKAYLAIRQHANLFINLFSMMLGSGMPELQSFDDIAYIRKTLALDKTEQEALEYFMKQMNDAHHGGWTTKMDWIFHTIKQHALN
Chain of PI3Kα (P27986 whole entry partner, species assumed): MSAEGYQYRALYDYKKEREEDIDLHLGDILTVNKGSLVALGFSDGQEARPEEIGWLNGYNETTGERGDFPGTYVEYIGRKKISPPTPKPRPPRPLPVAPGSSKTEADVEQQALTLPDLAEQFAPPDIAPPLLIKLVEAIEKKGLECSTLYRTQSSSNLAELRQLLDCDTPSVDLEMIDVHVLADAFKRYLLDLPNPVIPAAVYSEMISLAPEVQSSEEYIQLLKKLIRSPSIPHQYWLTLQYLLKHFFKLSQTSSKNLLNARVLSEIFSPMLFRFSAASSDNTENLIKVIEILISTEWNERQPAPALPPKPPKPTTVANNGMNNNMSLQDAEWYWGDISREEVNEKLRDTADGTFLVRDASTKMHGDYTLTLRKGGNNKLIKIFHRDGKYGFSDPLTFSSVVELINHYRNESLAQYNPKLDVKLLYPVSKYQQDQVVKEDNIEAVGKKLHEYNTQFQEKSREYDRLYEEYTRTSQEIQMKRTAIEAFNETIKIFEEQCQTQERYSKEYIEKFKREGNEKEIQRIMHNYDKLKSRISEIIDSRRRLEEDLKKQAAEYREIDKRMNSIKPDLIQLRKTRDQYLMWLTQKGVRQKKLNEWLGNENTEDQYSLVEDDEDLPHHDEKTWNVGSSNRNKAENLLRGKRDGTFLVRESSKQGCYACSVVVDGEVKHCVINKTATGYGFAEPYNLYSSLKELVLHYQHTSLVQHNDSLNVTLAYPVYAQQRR

In the case of `CCn1cc(/C=C2\Oc3ccc(NC(=O)Nc4cccnc4)cc3C2=O)c2c(-c3ccc(C(=O)N4CCN(CCO)CC4)cc3)ccnc21` [Compound 177, 1-[(2Z)-2-{[1-ethyl-4-(4-{[4-(2-hydroxyethyl)piperazin-1-yl]carbonyl}phenyl)-1H-pyrrolo[2,3-b]pyridin-3-yl]methylidene}-3-oxo-2,3-dihydro-1-benzofuran-5-yl]-3-pyridin-3-ylurea], the half-maximal inhibitory concentration (IC50) (in general, the midpoint of a concentration-inhibition curve) in experiment [1] turned out to be 2360 nM; in experiment [2], 2690 nM; in experiment [3], 66 nM.

Turning to `Cn1cc(/C=C2\Oc3ccc(NC(=O)Nc4cccnc4)cc3C2=O)c2c(-c3ccc(C(=O)N4CCOCC4)cc3)ccnc21` [Compound 178, 1-[(2Z)-2-({1-methyl-4-[4-(morpholin-4-ylcarbonyl)phenyl]-1H-pyrrolo[2,3-b]pyridin-3-yl}methylidene)-3-oxo-2,3-dihydro-1-benzofuran-5-yl]-3-pyridin-3-ylurea], the IC50 came out at 652 nM in experiment [1], 1120 nM in experiment [2] and 54.5 nM in experiment [3].

As to `CNC(=O)Nc1ccc2c(c1)C(=O)/C(=C/c1cn(C)c3nccc(-c4ccc(C(=O)N5CCOCC5)cc4)c13)O2` [Compound 179, 1-methyl-3-[(2Z)-2-({1-methyl-4-[4-(morpholin-4-ylcarbonyl)phenyl]-1H-pyrrolo[2,3-b]pyridin-3-yl}methylidene)-3-oxo-2,3-dihydro-1-benzofuran-5-yl]urea], the IC50 is 578 nM in experiment [1], 249 nM in experiment [2] and 15 nM in experiment [3].

As for `Cn1cc(/C=C2\Oc3cccc(O)c3C2=O)c2c(-c3ccc(S(=O)(=O)N4CCCCC4)cc3)ccnc21` [Compound 181, (2Z)-4-hydroxy-2-({1-methyl-4-[4-(piperidin-1-ylsulfonyl)phenyl]-1H-pyrrolo[2,3-b]pyridin-3-yl}methylidene)-1-benzofuran-3(2H)-one], the IC50 in experiment [1] was 1210 nM; in experiment [2], 123 nM; in experiment [3] it was 58 nM.

Regarding `Cn1cc(/C=C2\Oc3ccc(NC(=O)Nc4cccnc4)cc3C2=O)c2c(-c3ccccc3)ccnc21` [Compound 183, 1-{(2Z)-2-[(1-methyl-4-phenyl-1H-pyrrolo[2,3-b]pyridin-3-yl)methylidene]-3-oxo-2,3-dihydro-1-benzofuran-5-yl}-3-pyridin-3-ylurea], the figures for the IC50 in experiment [1], in experiment [2] and in experiment [3] were 479 nM, 367 nM and 755 nM, respectively.

As for `CN1CCN(c2ccnc3c2c(/C=C2\Oc4ccc(NC(=O)Nc5cccnc5)cc4C2=O)cn3C)CC1` [Compound 184, 1-[(2Z)-2-{[1-methyl-4-(4-methylpiperazin-1-yl)-1H-pyrrolo[2,3-b]pyridin-3-yl]methylidene}-3-oxo-2,3-dihydro-1-benzofuran-5-yl]-3-pyridin-3-ylurea], the figures for the half-maximal inhibitory concentration (IC50) in experiment [1], in experiment [2] and in experiment [3] were 484 nM, 632 nM and 83 nM, respectively.

In the case of `Cn1cc(/C=C2\Oc3ccc(NC(=O)Nc4cccnc4)cc3C2=O)c2c(N3CCOCC3)ccnc21` [Compound 185, 1-{(2Z)-2-[(1-methyl-4-morpholin-4-yl-1H-pyrrolo[2,3-b]pyridin-3-yl)methylidene]-3-oxo-2,3-dihydro-1-benzofuran-5-yl}-3-pyridin-3-ylurea], the 50% inhibitory concentration (IC50) came to 348 nM in experiment [1], 275 nM in experiment [2] and 71 nM in experiment [3].

Regarding `CCn1cc(/C=C2\Oc3cccc(O)c3C2=O)c2c(-c3ccc(C(=O)N4CCN(CCO)CC4)cc3)ccnc21` [Compound 186, (2Z)-2-{[1-ethyl-4-(4-{[4-(2-hydroxyethyl)piperazin-1-yl]carbonyl}phenyl)-1H-pyrrolo[2,3-b]pyridin-3-yl]methylidene}-4-hydroxy-1-benzofuran-3(2H)-one], the IC50 in experiment [1] was 550 nM; in experiment [2], 445 nM; in experiment [3], 4.6 nM.

With `Cn1cc(/C=C2\Oc3cccc(O)c3C2=O)c2c(-c3ccc(S(=O)(=O)N4CCCC4)cc3)ccnc21` [Compound 190, (2Z)-4-hydroxy-2-({1-methyl-4-[4-(pyrrolidin-1-ylsulfonyl)phenyl]-1H-pyrrolo[2,3-b]pyridin-3-yl}methylidene)-1-benzofuran-3(2H)-one], the IC50 in experiment [1] was found to be 80 nM; in experiment [2] it was 26 nM; in experiment [3] it was 3.5 nM.

Take `Cn1cc(/C=C2\Oc3cccc(O)c3C2=O)c2c(-c3ccc(S(=O)(=O)N4CCOCC4)cc3)ccnc21` [Compound 191, (2Z)-4-hydroxy-2-({1-methyl-4-[4-(morpholin-4-ylsulfonyl)phenyl]-1H-pyrrolo[2,3-b]pyridin-3-yl}methylidene)-1-benzofuran-3(2H)-one]: the values for the IC50 in experiment [1], in experiment [2] and in experiment [3] were 101 nM, 34 nM and 3 nM, respectively.

On to `CONC(=O)c1ccc(-c2ccnc3c2c(/C=C2\Oc4cccc(O)c4C2=O)cn3C)cc1` [Compound 192, 4-{3-[(Z)-(4-hydroxy-3-oxo-1-benzofuran-2(3H)-ylidene)methyl]-1-methyl-1H-pyrrolo[2,3-b]pyridin-4-yl}-N-methoxybenzamide], for which the 50% inhibitory concentration (IC50) in experiment [1] came out at 39 nM; in experiment [2] it was 26 nM; in experiment [3], 1 nM.

As for `CN(CCO)C(=O)c1ccc(-c2ccnc3c2c(/C=C2\Oc4cccc(O)c4C2=O)cn3C)cc1` [Compound 195, N-(2-hydroxyethyl)-4-{3-[(Z)-(4-hydroxy-3-oxo-1-benzofuran-2(3H)-ylidene)methyl]-1-methyl-1H-pyrrolo[2,3-b]pyridin-4-yl}-N-methylbenzamide], the IC50 is 234 nM in experiment [1], 140 nM in experiment [2] and 4.3 nM in experiment [3].

With `CON(C)C(=O)c1ccc(-c2ccnc3c2c(/C=C2\Oc4cccc(O)c4C2=O)cn3C)cc1` [Compound 196, 4-{3-[(Z)-(4-hydroxy-3-oxo-1-benzofuran-2(3H)-ylidene)methyl]-1-methyl-1H-pyrrolo[2,3-b]pyridin-4-yl}-N-methoxy-N-methylbenzamide], the IC50 was determined as 66 nM in experiment [1], 41 nM in experiment [2] and 1 nM in experiment [3].

As for `COCCCN(C)C(=O)C1CCN(c2ccnc3c2c(C=C2Oc4ccc(NC(=O)Nc5cccnc5)cc4C2=O)cn3C)CC1` [Compound 199, N-(3-methoxypropyl)-N-methyl-1-[1-methyl-3-({3-oxo-5-[(pyridin-3-ylcarbamoyl)amino]-1-benzofuran-2(3H)-ylidene}methyl)-1H-pyrrolo[2,3-b]pyridin-4-yl]piperidine-4-carboxamide], the values for the IC50 in experiment [1], in experiment [2] and in experiment [3] were 2990 nM, 2240 nM and 12.5 nM, respectively.

Regarding `COCCCNC(=O)C1CCN(c2ccnc3c2c(C=C2Oc4ccc(NC(=O)Nc5cccnc5)cc4C2=O)cn3C)CC1` [Compound 200, N-(3-methoxypropyl)-1-[1-methyl-3-({3-oxo-5-[(pyridin-3-ylcarbamoyl)amino]-1-benzofuran-2(3H)-ylidene}methyl)-1H-pyrrolo[2,3-b]pyridin-4-yl]piperidine-4-carboxamide], the IC50 is above 10000 nM in experiment [1], above 10000 nM in experiment [2] and 4.8 nM in experiment [3].

In the case of `Cn1cc(C=C2Oc3ccc(NC(=O)Nc4cccnc4)cc3C2=O)c2c(N3CCC(C(=O)NCC(N)=O)CC3)ccnc21` [Compound 202, N-(2-amino-2-oxoethyl)-1-[1-methyl-3-({3-oxo-5-[(pyridin-3-ylcarbamoyl)amino]-1-benzofuran-2(3H)-ylidene}methyl)-1H-pyrrolo[2,3-b]pyridin-4-yl]piperidine-4-carboxamide], the IC50 is above 10000 nM in experiment [1], 5900 nM in experiment [2] and 4 nM in experiment [3].

Turning to `Cn1cc(C=C2Oc3ccc(NC(=O)Nc4cccnc4)cc3C2=O)c2c(N3CCC(C(=O)NCCN4CCCC4)CC3)ccnc21` [Compound 203, 1-[1-methyl-3-({3-oxo-5-[(pyridin-3-ylcarbamoyl)amino]-1-benzofuran-2(3H)-ylidene}methyl)-1H-pyrrolo[2,3-b]pyridin-4-yl]-N-(2-pyrrolidin-1-ylethyl)piperidine-4-carboxamide], the values for the half-inhibitory concentration (IC50) in experiment [1], in experiment [2] and in experiment [3] were above 10000 nM, above 10000 nM and 19 nM, respectively.

Turning to `Cn1cc(C=C2Oc3ccc(NC(=O)Nc4cccnc4)cc3C2=O)c2c(N3CCC(C(=O)N4CC=CC4)CC3)ccnc21` [Compound 204, 1-[2-({4-[4-(2,5-dihydro-1H-pyrrol-1-ylcarbonyl)piperidin-1-yl]-1-methyl-1H-pyrrolo[2,3-b]pyridin-3-yl}methylidene)-3-oxo-2,3-dihydro-1-benzofuran-5-yl]-3-pyridin-3-ylurea], the IC50 in experiment [1] was determined as 1730 nM; in experiment [2] it was 5620 nM; in experiment [3], 10 nM.

In the case of `CN1CCC(N(C)C(=O)C2CCN(c3ccnc4c3c(C=C3Oc5ccc(NC(=O)Nc6cccnc6)cc5C3=O)cn4C)CC2)C1` (stereo not drawn) [Compound 205, N-methyl-1-[1-methyl-3-({3-oxo-5-[(pyridin-3-ylcarbamoyl)amino]-1-benzofuran-2(3H)-ylidene}methyl)-1H-pyrrolo[2,3-b]pyridin-4-yl]-N-(1-methylpyrrolidin-3-yl)piperidine-4-carboxamide], the results for the IC50 in experiment [1], in experiment [2] and in experiment [3] were 9230 nM, above 10000 nM and 49 nM, respectively.

Take `CN(C(=O)C1CCN(c2ccnc3c2c(C=C2Oc4ccc(NC(=O)Nc5cccnc5)cc4C2=O)cn3C)CC1)[C@@H]1CCNC1` [Compound 206, N-methyl-1-[1-methyl-3-({3-oxo-5-[(pyridin-3-ylcarbamoyl)amino]-1-benzofuran-2(3H)-ylidene}methyl)-1H-pyrrolo[2,3-b]pyridin-4-yl]-N-[(3R)-pyrrolidin-3-yl]piperidine-4-carboxamide]: the 50% inhibitory concentration (IC50) in experiment [1] is above 10000 nM; in experiment [2] it was above 10000 nM; in experiment [3], 47 nM.

Turning to `Cn1cc(C=C2Oc3ccc(NC(=O)Nc4cccnc4)cc3C2=O)c2c(N3CCC(C(=O)N[C@@H]4CCNC4)CC3)ccnc21` [Compound 207, 1-[1-methyl-3-({3-oxo-5-[(pyridin-3-ylcarbamoyl)amino]-1-benzofuran-2(3H)-ylidene}methyl)-1H-pyrrolo[2,3-b]pyridin-4-yl]-N-[(3R)-pyrrolidin-3-yl]piperidine-4-carboxamide], the results for the IC50 in experiment [1], in experiment [2] and in experiment [3] were 4290 nM, at least 10000 nM and 16 nM, respectively.
